Measured values: PubChem BioAssay AID2060907 (Molecular Pharmacology Branch, DTP, NCI, 2025)

Test system: 388556-164-R-J1-PDC complex spheroid viability
Assay: Anticancer human tumor 388556-164-R-J1-PDC patient-derived colon adenocarcinoma cell line growth inhibition [RAS]
Details: for IC50: curve of first compound; for viability, T/C: stronger effect = lower value
Summary of the method: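 Tumour cells grown as complex spheroids with HUVEC endothelial cells and mesenchymal stem cells, treated with RAS pathway inhibitor combinations. Each agent spans half-log steps from near clinical Cmax, or 10 microM where Cmax is unknown.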

[1] = second compound 0.000949 µM, first compound 0.0316 µM
[2] = second compound 0.000949 µM, first compound 0.1 µM
[3] = second compound 0.000949 µM, first compound 0.316 µM
[4] = second compound 0.000949 µM, first compound 1 µM
[5] = second compound 0.000949 µM, first compound 3.16 µM
[6] = second compound 0.000949 µM, first compound 10 µM
[7] = second compound 0.003 µM, first compound 0.0316 µM
[8] = second compound 0.003 µM, first compound 0.1 µM
[9] = second compound 0.003 µM, first compound 0.316 µM
[10] = second compound 0.003 µM, first compound 1 µM
[11] = second compound 0.003 µM, first compound 3.16 µM
[12] = second compound 0.003 µM, first compound 10 µM
[13] = second compound 0.00949 µM, first compound 0.0316 µM
[14] = second compound 0.00949 µM, first compound 0.1 µM
[15] = second compound 0.00949 µM, first compound 0.316 µM
[16] = second compound 0.00949 µM, first compound 1 µM
[17] = second compound 0.00949 µM, first compound 3.16 µM
[18] = second compound 0.00949 µM, first compound 10 µM
[19] = second compound 0.03 µM, first compound 0.0316 µM
[20] = second compound 0.03 µM, first compound 0.1 µM
[21] = second compound 0.03 µM, first compound 0.316 µM
[22] = second compound 0.03 µM, first compound 1 µM
[23] = second compound 0.03 µM, first compound 3.16 µM
[24] = second compound 0.03 µM, first compound 10 µM
[25] = second compound 0.0949 µM, first compound 0.0316 µM
[26] = second compound 0.0949 µM, first compound 0.1 µM
[27] = second compound 0.0949 µM, first compound 0.316 µM
[28] = second compound 0.0949 µM, first compound 1 µM
[29] = second compound 0.0949 µM, first compound 3.16 µM
[30] = second compound 0.0949 µM, first compound 10 µM
[31] = second compound 0.3 µM, first compound 0.0316 µM
[32] = second compound 0.3 µM, first compound 0.1 µM
[33] = second compound 0.3 µM, first compound 0.316 µM
[34] = second compound 0.3 µM, first compound 1 µM
[35] = second compound 0.3 µM, first compound 3.16 µM
[36] = second compound 0.3 µM, first compound 10 µM
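Further: spheroids exposed to compound for 7 days before readout.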
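Wherever viability, T/C is given: 100% = DMSO vehicle control luminescence.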

CC(C)NCC(C(=O)N1CCN(c2ncnc3c2C(C)CC3O)CC1)c1ccc(Cl)cc1 (stereo not drawn) + CCn1c(-c2cc(N3CCN(C)CC3)cnc2C(C)OC)c2c3cc(ccc31)-c1csc(n1)CC(NC(=O)C1CC1C)C(=O)N1CCCC(N1)C(=O)OCC(C)(C)C2
IC50 (second compound 0.000949 µM): > 10000 nM | IC50 (second compound 0.003 µM): > 10000 nM | IC50 (second compound 0.00949 µM): > 10000 nM | IC50 (second compound 0.03 µM): 5630 nM | IC50 (second compound 0.0949 µM): < 31.6 nM | IC50 (second compound 0.3 µM): < 31.6 nM | viability, T/C [1]: 105% | viability, T/C [2]: 107% | viability, T/C [3]: 96.4% | viability, T/C [4]: 91.2% | viability, T/C [5]: 95% | viability, T/C [6]: 103% | viability, T/C [7]: 102% | viability, T/C [8]: 96.5% | viability, T/C [9]: 95.4% | viability, T/C [10]: 82% | viability, T/C [11]: 84.9% | viability, T/C [12]: 88% | viability, T/C [13]: 86% | viability, T/C [14]: 80% | viability, T/C [15]: 69.4% | viability, T/C [16]: 73.9% | viability, T/C [17]: 84.8% | viability, T/C [18]: 58.8% | viability, T/C [19]: 58.2% | viability, T/C [20]: 65.7% | viability, T/C [21]: 57.1% | viability, T/C [22]: 56% | viability, T/C [23]: 51.9% | viability, T/C [24]: 47.8% | viability, T/C [25]: 45.7% | viability, T/C [26]: 46.5% | viability, T/C [27]: 38.9% | viability, T/C [28]: 36.3% | viability, T/C [29]: 40.9% | viability, T/C [30]: 33% | viability, T/C [31]: 31.9% | viability, T/C [32]: 31.5% | viability, T/C [33]: 30.5% | viability, T/C [34]: 28.1% | viability, T/C [35]: 24.4% | viability, T/C [36]: 22.8%

CC(C)n1nc(-c2ccc3oc(N)nc3c2)c2c(N)ncnc21 + CCn1c(-c2cc(N3CCN(C)CC3)cnc2C(C)OC)c2c3cc(ccc31)-c1csc(n1)CC(NC(=O)C1CC1C)C(=O)N1CCCC(N1)C(=O)OCC(C)(C)C2
IC50 (second compound 0.000949 µM): 43.9 nM | IC50 (second compound 0.003 µM): 35.5 nM | IC50 (second compound 0.00949 µM): 16.2 nM | IC50 (second compound 0.03 µM): 5.2 nM | IC50 (second compound 0.0949 µM): < 0.316 nM | IC50 (second compound 0.3 µM): < 0.316 nM | viability, T/C (second compound 0.000949 µM, first compound 0.000316 µM): 107% | viability, T/C (second compound 0.000949 µM, first compound 0.001 µM): 94.8% | viability, T/C (second compound 0.000949 µM, first compound 0.00316 µM): 73.7% | viability, T/C (second compound 0.000949 µM, first compound 0.01 µM): 71.5% | viability, T/C [1]: 56.4% | viability, T/C [2]: 38% | viability, T/C (second compound 0.003 µM, first compound 0.000316 µM): 88.3% | viability, T/C (second compound 0.003 µM, first compound 0.001 µM): 80.4% | viability, T/C (second compound 0.003 µM, first compound 0.00316 µM): 72.2% | viability, T/C (second compound 0.003 µM, first compound 0.01 µM): 68.1% | viability, T/C [7]: 50.8% | viability, T/C [8]: 34.9% | viability, T/C (second compound 0.00949 µM, first compound 0.000316 µM): 82.4% | viability, T/C (second compound 0.00949 µM, first compound 0.001 µM): 78.9% | viability, T/C (second compound 0.00949 µM, first compound 0.00316 µM): 59.4% | viability, T/C (second compound 0.00949 µM, first compound 0.01 µM): 56.5% | viability, T/C [13]: 47.1% | viability, T/C [14]: 27.2% | viability, T/C (second compound 0.03 µM, first compound 0.000316 µM): 60.6% | viability, T/C (second compound 0.03 µM, first compound 0.001 µM): 55.1% | viability, T/C (second compound 0.03 µM, first compound 0.00316 µM): 62.5% | viability, T/C (second compound 0.03 µM, first compound 0.01 µM): 37.6% | viability, T/C [19]: 34.4% | viability, T/C [20]: 21.5% | viability, T/C (second compound 0.0949 µM, first compound 0.000316 µM): 46.3% | viability, T/C (second compound 0.0949 µM, first compound 0.001 µM): 42.1% | viability, T/C (second compound 0.0949 µM, first compound 0.00316 µM): 39.1% | viability, T/C (second compound 0.0949 µM, first compound 0.01 µM): 34.4% | viability, T/C [25]: 27.9% | viability, T/C [26]: 18.2% | viability, T/C (second compound 0.3 µM, first compound 0.000316 µM): 30.6% | viability, T/C (second compound 0.3 µM, first compound 0.001 µM): 32.6% | viability, T/C (second compound 0.3 µM, first compound 0.00316 µM): 27.9% | viability, T/C (second compound 0.3 µM, first compound 0.01 µM): 23.5% | viability, T/C [31]: 20.9% | viability, T/C [32]: 17.1%

CC(Nc1ccc2c(c1)OCCn1cc(N3C(=O)OCC3C(F)F)nc1-2)C(N)=O (stereo not drawn) + CCn1c(-c2cc(N3CCN(C)CC3)cnc2C(C)OC)c2c3cc(ccc31)-c1csc(n1)CC(NC(=O)C1CC1C)C(=O)N1CCCC(N1)C(=O)OCC(C)(C)C2
IC50 (second compound 0.000949 µM): > 10000 nM | IC50 (second compound 0.003 µM): 3450 nM | IC50 (second compound 0.00949 µM): 854 nM | IC50 (second compound 0.03 µM): 98.5 nM | IC50 (second compound 0.0949 µM): < 31.6 nM | IC50 (second compound 0.3 µM): < 31.6 nM | viability, T/C [1]: 89.5% | viability, T/C [2]: 82.3% | viability, T/C [3]: 71.9% | viability, T/C [4]: 66.6% | viability, T/C [5]: 59.6% | viability, T/C [6]: 49.6% | viability, T/C [7]: 82.4% | viability, T/C [8]: 79.2% | viability, T/C [9]: 63.4% | viability, T/C [10]: 62.6% | viability, T/C [11]: 51.6% | viability, T/C [12]: 40.2% | viability, T/C [13]: 79.3% | viability, T/C [14]: 75% | viability, T/C [15]: 48.5% | viability, T/C [16]: 52.4% | viability, T/C [17]: 43.8% | viability, T/C [18]: 31.9% | viability, T/C [19]: 55.8% | viability, T/C [20]: 48.4% | viability, T/C [21]: 42% | viability, T/C [22]: 42.7% | viability, T/C [23]: 34.7% | viability, T/C [24]: 25.7% | viability, T/C [25]: 42.3% | viability, T/C [26]: 38% | viability, T/C [27]: 31.6% | viability, T/C [28]: 27.9% | viability, T/C [29]: 22.7% | viability, T/C [30]: 16.3% | viability, T/C [31]: 28.2% | viability, T/C [32]: 26.2% | viability, T/C [33]: 22.9% | viability, T/C [34]: 21% | viability, T/C [35]: 18.6% | viability, T/C [36]: 14.2%

C[C@@H](NC(=O)c1ncnc(N)c1Cl)c1ncc(C(=O)Nc2cc(C(F)(F)F)c(Cl)cn2)s1 + CCn1c(-c2cc(N3CCN(C)CC3)cnc2C(C)OC)c2c3cc(ccc31)-c1csc(n1)CC(NC(=O)C1CC1C)C(=O)N1CCCC(N1)C(=O)OCC(C)(C)C2
IC50 (second compound 0.000949 µM): > 10000 nM | IC50 (second compound 0.003 µM): > 10000 nM | IC50 (second compound 0.00949 µM): > 10000 nM | IC50 (second compound 0.03 µM): > 10000 nM | IC50 (second compound 0.0949 µM): > 10000 nM | IC50 (second compound 0.3 µM): < 31.6 nM | viability, T/C [1]: 96.3% | viability, T/C [2]: 127% | viability, T/C [3]: 105% | viability, T/C [4]: 117% | viability, T/C [5]: 129% | viability, T/C [6]: 109% | viability, T/C [7]: 114% | viability, T/C [8]: 100% | viability, T/C [9]: 86.5% | viability, T/C [10]: 101% | viability, T/C [11]: 111% | viability, T/C [12]: 105% | viability, T/C [13]: 85% | viability, T/C [14]: 87.1% | viability, T/C [15]: 89.5% | viability, T/C [16]: 82.2% | viability, T/C [17]: 102% | viability, T/C [18]: 104% | viability, T/C [19]: 75.7% | viability, T/C [20]: 67.9% | viability, T/C [21]: 91% | viability, T/C [22]: 75.1% | viability, T/C [23]: 78.8% | viability, T/C [24]: 72.4% | viability, T/C [25]: 50.2% | viability, T/C [26]: 54.3% | viability, T/C [27]: 54.3% | viability, T/C [28]: 63.9% | viability, T/C [29]: 71% | viability, T/C [30]: 61.4% | viability, T/C [31]: 34.3% | viability, T/C [32]: 33.2% | viability, T/C [33]: 38.6% | viability, T/C [34]: 41.6% | viability, T/C [35]: 38.5% | viability, T/C [36]: 44.1%
